Test results reported in patent publication US20040157738A1, “Novel oxygen containing fused cyclic derivatives and herbicidal, desiccant and defoliate compositions containing them” (ISHIHARA SANGYO KAISHA, LTD., priority 2003, published 2004).

Tests used:
Assay type in all cases: in vivo
[1] = tested on: rice (Oryza sativa L.), ORYSA; assay: Test Example 2: post-emergence (foliage treatment) herbicidal activity (growth controlling degree); conditions: 31 g a.i./ha, 1.6-2.2 leaf stage
Method in brief: (§1)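 Herbicidal effect is rated by eye as growth control from 0 (like untreated plants) to 100 (plants killed). Compound, formulated as wettable powder or emulsifiable concentrate, is applied post-emergence to foliage in water at 500 L/ha with 0.1%(v/v) spreader.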

[2] = tested on: velvetleaf (Abutilon theophrasti), ABUTH; assay: as above; conditions: 31 g a.i./ha, 0.3-0.4 leaf stage
Method in brief: as §1

[3] = tested on: prickly sida (Sida spinosa L.), SIDSP; assay: as above; conditions: 31 g a.i./ha, 0.3-0.5 leaf stage
Method in brief: as §1

[4] = tested on: barnyardgrass (Echinochloa crus-galli L.), ECHCG; assay: as above; conditions: 31 g a.i./ha, 1.8-2.4 leaf stage
Method in brief: (§2)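 Seeds sown in upland field soil; foliage treated by small sprayer once seedlings reached target stages (ECHCG 1.8-2.4 lf, AMARE 0.1-0.3 lf, XANST 0.2-0.6 lf, GLXMA 0.2-0.3 lf). Spray: WP/EC in water, 500 L/ha, spreader 0.1% v/v. Read-out: visual % control.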

[5] = tested on: corn (Zea mays L.), ZEAMX; assay: as above; conditions: 31 g a.i./ha, 2.2-2.5 leaf stage
Method in brief: as §1

[6] = tested on: common cocklebur (Xanthium strumarium L.), XANST; assay: as above; conditions: 31 g a.i./ha, 0.2-0.6 leaf stage
Method in brief: as §2

[7] = tested on: crabgrass (Digitaria sanguinalis L.), DIGSA; assay: as above; conditions: 31 g a.i./ha, 1.5-2.2 leaf stage
Method in brief: as §1

[8] = tested on: green foxtail (Setaria viridis L.), SETVI; assay: as above; conditions: 31 g a.i./ha, 1.7-2.5 leaf stage
Method in brief: as §1

[9] = tested on: redroot pigweed (Amaranthus retroflexus L.), AMARE; assay: as above; conditions: 31 g a.i./ha, 0.1-0.3 leaf stage
Method in brief: as §2

[10] = tested on: soybean (Glycine max Merr.), GLXMA; assay: as above; conditions: 31 g a.i./ha, 0.2-0.3 leaf stage
Method in brief: as §2

[11] = tested on: corn (Zea mays L.): ZEAMX; assay: Test Example 1: pre-emergence herbicidal activity (growth controlling degree); conditions: 125 g a.i./ha, 20th to 21st day after application
Method in brief: (§3)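 Upland soil pots, seeded; day 1 post-sowing: pre-emergence spray, WP/EC formulation, predetermined a.i. rate, 500 L/ha water. Readout: visual % growth control, days 20–21, 0–100 scale.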

[12] = tested on: redroot pigweed (Amaranthus retroflexus L.): AMARE; assay: as above; conditions: 125 g a.i./ha, 20th to 21st day after application
Method in brief: as §3

[13] = tested on: common cocklebur (Xanthium strumarium L.): XANST; assay: as above; conditions: 125 g a.i./ha, 20th to 21st day after application
Method in brief: as §3

[14] = tested on: velvetleaf (Abutilon theophrasti): ABUTH; assay: as above; conditions: 125 g a.i./ha, 20th to 21st day after application
Method in brief: as §3

[15] = tested on: prickly sida (Sida spinosa L.): SIDSP; assay: as above; conditions: 125 g a.i./ha, 20th to 21st day after application
Method in brief: as §3

[16] = tested on: rice (Oryza sativa L.): ORYSA; assay: as above; conditions: 125 g a.i./ha, 20th to 21st day after application
Method in brief: as §3

[17] = tested on: barnyardgrass (Echinochloa crus-galli L.): ECHCC; assay: as above; conditions: 125 g a.i./ha, 20th to 21st day after application
Method in brief: as §3

[18] = tested on: green foxtail (Setaria viridis L.): SETVI; assay: as above; conditions: 125 g a.i./ha, 20th to 21st day after application
Method in brief: as §3

[19] = tested on: soybean (Glycine max Merr.): GLXMA; assay: as above; conditions: 125 g a.i./ha, 20th to 21st day after application
Method in brief: as §3

[20] = tested on: crabgrass (Digitaria sanguinalis L.): DIGSA; assay: as above; conditions: 125 g a.i./ha, 20th to 21st day after application
Method in brief: as §3

CCCCCC1CCc2c(c(Cl)cc(F)c2-c2nn(C)c(OC(F)F)c2Cl)O1 (centres unmarked) [Compound 1-101]
growth controlling degree, ORYSA [1]: 60%
growth controlling degree, ABUTH [2]: 100%
growth controlling degree, SIDSP [3]: 100%
growth controlling degree, ECHCG [4]: 100%
growth controlling degree, ZEAMX [5]: 70%
growth controlling degree, XANST [6]: 100%
growth controlling degree, DIGSP [7]: 100%
growth controlling degree, SETVI [8]: 100%
growth controlling degree, AMARE [9]: 100%
growth controlling degree, GLXMA [10]: 70%
growth controlling degree, ZEAMX [11]: 40%
growth controlling degree, AMARE [12]: 100%
growth controlling degree, XANST [13]: 30%
growth controlling degree, ABUTH [14]: 60%
growth controlling degree, SIDSP [15]: 80%
growth controlling degree, ORYSA [16]: 30%
growth controlling degree, ECHCG [17]: 80%
growth controlling degree, SETVI [18]: 100%
growth controlling degree, GLXMA [19]: 10%
growth controlling degree, DIGSP [20]: 100%
